Assays:
Experiment in all cases: DSF 100 kinase selectivity screen;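 further: compound tested at 20 µM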
Format in all cases: binding
[1] = molecular target: T1, ~100 representative kinases (Homo sapiens, UniProt P54753); conditions: Protein EPHB3A; average of three replicates
T1 construct: Recombinant protein kinase domains with a concentration of 2 μM
T1 sequence (P54753 34-998): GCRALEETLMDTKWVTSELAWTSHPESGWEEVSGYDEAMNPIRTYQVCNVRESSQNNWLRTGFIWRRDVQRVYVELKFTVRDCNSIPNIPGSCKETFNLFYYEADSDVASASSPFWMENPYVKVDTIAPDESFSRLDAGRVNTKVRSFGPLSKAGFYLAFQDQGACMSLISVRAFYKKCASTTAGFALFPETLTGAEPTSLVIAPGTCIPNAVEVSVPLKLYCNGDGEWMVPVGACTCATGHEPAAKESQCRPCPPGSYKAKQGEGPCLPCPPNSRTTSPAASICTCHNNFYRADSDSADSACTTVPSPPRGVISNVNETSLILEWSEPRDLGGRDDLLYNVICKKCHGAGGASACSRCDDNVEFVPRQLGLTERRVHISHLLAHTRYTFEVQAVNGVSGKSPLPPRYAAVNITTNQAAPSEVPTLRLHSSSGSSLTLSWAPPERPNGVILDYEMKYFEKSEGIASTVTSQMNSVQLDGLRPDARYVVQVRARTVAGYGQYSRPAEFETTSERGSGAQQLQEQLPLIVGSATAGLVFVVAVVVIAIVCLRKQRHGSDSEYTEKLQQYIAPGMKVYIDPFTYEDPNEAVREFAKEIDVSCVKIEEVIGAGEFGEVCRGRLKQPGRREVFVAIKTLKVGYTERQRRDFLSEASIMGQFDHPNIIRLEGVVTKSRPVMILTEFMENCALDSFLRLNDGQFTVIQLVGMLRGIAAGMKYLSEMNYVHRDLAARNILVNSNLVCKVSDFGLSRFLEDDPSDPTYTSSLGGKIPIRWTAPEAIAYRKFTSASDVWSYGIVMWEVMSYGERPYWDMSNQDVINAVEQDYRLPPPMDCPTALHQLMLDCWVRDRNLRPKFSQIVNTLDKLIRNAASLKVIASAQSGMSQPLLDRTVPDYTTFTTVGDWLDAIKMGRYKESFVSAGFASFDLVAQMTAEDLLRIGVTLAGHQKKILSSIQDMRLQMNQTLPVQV
In short: (§1)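 Each kinase domain, at 2 μM, is mixed with 20 μM test compound and SYPRO Orange in Hepes (20 mM, pH 7.5) with 500 mM NaCl. Temperature is then raised at 3°C/min and fluorescence-monitored unfolding yields the melting temperature change, ΔTm in degrees Celsius.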

[2] = molecular target: T2, ~100 representative kinases (Homo sapiens, UniProt Q15418); conditions: Protein RPS6KA1; DSF; average of three replicates
T2 construct: Recombinant protein kinase domains with a concentration of 2 μM
T2 sequence (Q15418 whole entry, the tested form may be a part): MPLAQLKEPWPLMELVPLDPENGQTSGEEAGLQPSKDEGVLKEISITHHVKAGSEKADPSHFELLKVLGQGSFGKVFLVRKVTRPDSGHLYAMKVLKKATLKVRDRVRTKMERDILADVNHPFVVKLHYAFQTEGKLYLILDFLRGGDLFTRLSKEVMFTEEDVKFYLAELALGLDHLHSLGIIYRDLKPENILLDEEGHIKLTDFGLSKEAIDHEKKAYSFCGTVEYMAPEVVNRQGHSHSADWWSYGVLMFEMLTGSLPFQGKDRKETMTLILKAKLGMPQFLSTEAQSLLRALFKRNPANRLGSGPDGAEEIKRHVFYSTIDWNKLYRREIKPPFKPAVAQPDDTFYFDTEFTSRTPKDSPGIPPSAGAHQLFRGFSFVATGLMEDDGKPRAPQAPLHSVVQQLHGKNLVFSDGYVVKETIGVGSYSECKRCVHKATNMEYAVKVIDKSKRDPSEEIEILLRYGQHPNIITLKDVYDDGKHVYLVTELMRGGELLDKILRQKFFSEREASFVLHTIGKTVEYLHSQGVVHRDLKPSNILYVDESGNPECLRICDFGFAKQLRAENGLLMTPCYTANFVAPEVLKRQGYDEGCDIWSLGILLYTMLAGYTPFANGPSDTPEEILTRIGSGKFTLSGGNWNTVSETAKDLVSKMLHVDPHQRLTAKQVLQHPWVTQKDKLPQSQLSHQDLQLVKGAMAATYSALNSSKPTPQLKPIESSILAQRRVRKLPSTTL
In short: as §1

[3] = molecular target: T3, ~100 representative kinases (Homo sapiens, UniProt Q13554); conditions: Protein CAMK2B; average of three replicates
T3 construct: Recombinant protein kinase domains with a concentration of 2 μM
T3 sequence (Q13554 whole entry, the tested form may be a part): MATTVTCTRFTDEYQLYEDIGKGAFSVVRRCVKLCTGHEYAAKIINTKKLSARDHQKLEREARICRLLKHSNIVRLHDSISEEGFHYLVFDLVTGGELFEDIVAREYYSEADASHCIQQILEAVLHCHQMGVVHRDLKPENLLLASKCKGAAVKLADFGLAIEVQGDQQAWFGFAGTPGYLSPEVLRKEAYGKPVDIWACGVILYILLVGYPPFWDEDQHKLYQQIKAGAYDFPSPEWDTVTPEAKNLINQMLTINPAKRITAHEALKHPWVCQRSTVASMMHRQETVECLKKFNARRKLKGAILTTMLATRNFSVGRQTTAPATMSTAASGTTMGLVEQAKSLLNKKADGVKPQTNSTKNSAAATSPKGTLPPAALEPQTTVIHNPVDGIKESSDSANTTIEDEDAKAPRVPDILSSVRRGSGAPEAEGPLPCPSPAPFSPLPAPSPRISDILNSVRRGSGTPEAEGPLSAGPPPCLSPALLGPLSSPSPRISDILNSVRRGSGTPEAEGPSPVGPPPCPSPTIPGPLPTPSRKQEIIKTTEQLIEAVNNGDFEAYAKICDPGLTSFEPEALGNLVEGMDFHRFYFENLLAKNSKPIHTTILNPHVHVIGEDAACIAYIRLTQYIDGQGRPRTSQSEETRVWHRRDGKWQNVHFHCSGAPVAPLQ
In short: as §1

[4] = molecular target: T4, ~100 representative kinases (Homo sapiens, UniProt P53355); conditions: Protein DAPK1; average of three replicates
T4 construct: Recombinant protein kinase domains with a concentration of 2 μM
T4 sequence (P53355 whole entry, the tested form may be a part): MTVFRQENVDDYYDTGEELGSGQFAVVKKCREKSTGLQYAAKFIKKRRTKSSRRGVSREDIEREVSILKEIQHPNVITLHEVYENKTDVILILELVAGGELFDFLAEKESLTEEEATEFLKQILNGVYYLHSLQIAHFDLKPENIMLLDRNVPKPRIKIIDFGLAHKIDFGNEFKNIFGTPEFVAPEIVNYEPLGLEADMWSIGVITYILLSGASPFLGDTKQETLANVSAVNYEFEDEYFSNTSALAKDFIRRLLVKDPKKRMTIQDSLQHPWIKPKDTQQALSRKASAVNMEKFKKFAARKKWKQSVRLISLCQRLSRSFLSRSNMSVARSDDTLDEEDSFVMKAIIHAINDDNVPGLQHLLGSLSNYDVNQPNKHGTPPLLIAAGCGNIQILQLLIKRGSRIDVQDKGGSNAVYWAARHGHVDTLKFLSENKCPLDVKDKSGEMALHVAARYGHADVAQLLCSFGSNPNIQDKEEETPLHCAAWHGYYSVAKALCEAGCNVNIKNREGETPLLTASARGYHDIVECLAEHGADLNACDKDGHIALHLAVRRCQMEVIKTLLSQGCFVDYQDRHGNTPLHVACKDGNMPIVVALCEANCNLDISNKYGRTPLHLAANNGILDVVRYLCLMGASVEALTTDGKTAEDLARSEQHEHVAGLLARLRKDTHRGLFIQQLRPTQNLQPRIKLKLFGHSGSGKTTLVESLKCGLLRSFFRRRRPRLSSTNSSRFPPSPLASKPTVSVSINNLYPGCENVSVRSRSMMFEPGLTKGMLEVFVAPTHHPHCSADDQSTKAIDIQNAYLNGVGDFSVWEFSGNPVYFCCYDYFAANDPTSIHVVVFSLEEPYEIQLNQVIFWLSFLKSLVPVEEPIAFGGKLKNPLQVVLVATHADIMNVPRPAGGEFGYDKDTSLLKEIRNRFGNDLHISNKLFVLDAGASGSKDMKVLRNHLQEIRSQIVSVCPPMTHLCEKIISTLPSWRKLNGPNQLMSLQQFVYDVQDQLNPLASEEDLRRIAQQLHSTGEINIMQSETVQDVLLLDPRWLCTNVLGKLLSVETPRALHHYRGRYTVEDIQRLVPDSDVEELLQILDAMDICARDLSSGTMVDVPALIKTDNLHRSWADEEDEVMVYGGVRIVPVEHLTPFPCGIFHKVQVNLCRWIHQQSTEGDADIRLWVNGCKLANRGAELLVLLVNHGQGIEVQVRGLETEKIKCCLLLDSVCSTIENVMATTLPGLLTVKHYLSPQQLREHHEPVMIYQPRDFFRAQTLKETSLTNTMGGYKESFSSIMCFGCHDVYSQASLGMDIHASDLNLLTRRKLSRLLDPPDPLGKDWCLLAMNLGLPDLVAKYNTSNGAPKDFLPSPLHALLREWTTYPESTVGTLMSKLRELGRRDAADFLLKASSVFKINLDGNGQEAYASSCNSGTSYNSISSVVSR
In short: as §1

[5] = molecular target: T5, ~100 representative kinases (Homo sapiens, UniProt P11309); conditions: protein PIM1; average of three replicates
T5 construct: Recombinant protein kinase domains with a concentration of 2 μM
T5 sequence (P11309 whole entry, the tested form may be a part): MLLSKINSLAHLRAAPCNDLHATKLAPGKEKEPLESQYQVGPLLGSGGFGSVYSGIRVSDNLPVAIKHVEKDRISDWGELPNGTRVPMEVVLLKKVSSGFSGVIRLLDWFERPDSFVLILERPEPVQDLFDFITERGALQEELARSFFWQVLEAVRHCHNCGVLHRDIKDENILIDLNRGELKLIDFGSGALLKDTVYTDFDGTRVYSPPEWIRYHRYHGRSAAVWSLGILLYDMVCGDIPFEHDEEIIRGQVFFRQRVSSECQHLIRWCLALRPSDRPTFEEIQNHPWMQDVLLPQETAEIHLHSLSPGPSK
In short: as §1

[6] = molecular target: T6, ~100 representative kinases (Homo sapiens, UniProt P49674); conditions: Protein CSNK1E; average of three replicates
T6 construct: Recombinant protein kinase domains with a concentration of 2 μM
T6 sequence (P49674 whole entry, the tested form may be a part): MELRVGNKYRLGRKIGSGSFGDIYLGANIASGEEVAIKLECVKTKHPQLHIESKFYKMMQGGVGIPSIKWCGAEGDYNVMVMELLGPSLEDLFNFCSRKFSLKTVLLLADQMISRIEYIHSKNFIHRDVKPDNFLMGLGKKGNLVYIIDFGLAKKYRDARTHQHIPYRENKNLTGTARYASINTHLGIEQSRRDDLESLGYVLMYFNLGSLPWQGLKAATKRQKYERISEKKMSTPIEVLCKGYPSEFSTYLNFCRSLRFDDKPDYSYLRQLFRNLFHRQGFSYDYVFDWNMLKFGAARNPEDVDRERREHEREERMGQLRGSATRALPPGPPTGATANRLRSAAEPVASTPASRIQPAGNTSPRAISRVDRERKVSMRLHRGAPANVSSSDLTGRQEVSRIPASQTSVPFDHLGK
In short: as §1

[7] = molecular target: T7, ~100 representative kinases (Homo sapiens, UniProt P52564); conditions: protein MAP2K6; average of three replicates
T7 construct: Recombinant protein kinase domains with a concentration of 2 μM
T7 sequence (P52564 1-334): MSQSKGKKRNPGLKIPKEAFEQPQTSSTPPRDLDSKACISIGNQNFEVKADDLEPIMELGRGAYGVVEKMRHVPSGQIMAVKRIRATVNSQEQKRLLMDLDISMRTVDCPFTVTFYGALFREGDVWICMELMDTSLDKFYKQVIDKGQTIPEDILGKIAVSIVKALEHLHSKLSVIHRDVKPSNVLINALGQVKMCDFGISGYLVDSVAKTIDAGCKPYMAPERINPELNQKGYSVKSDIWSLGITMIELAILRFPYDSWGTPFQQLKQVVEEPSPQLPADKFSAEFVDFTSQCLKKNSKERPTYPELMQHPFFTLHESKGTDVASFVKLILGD
In short: as §1

[8] = molecular target: T8, ~100 representative kinases (Homo sapiens, UniProt Q00532); conditions: Protein CDKL1; average of three replicates
T8 construct: Recombinant protein kinase domains with a concentration of 2 μM
T8 sequence (Q00532 whole entry, the tested form may be a part): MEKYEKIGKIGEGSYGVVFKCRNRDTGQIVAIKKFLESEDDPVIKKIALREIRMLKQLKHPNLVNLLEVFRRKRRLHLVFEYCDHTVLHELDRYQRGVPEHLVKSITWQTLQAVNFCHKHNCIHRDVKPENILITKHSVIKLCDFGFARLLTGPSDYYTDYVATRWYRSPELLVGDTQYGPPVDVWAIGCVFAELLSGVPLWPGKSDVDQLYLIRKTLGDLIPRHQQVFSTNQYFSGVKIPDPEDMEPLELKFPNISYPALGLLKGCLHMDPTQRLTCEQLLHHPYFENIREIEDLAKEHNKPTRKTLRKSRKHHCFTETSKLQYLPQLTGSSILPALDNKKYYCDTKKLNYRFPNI
In short: as §1

[9] = molecular target: T9, ~100 representative kinases (Homo sapiens, UniProt Q9UEE5); conditions: Protein STK17A; DSF; average of three replicates
T9 construct: Recombinant protein kinase domains with a concentration of 2 μM
T9 sequence (Q9UEE5 1-414): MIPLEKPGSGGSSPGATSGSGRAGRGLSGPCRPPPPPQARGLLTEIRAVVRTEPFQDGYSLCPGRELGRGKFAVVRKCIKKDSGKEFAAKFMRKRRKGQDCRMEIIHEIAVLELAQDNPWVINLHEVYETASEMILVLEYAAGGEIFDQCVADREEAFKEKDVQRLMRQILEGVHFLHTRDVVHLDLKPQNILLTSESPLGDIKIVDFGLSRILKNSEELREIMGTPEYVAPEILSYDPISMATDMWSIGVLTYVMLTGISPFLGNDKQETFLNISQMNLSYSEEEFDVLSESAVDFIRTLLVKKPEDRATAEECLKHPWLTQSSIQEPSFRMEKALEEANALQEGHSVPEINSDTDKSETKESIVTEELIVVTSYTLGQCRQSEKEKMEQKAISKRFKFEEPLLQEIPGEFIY
In short: as §1

[10] = molecular target: T10, ~100 representative kinases (Homo sapiens, UniProt P15056); conditions: Protein BRAF; average of three replicates
T10 construct: Recombinant protein kinase domains with a concentration of 2 μM
T10 sequence (P15056 whole entry, the tested form may be a part): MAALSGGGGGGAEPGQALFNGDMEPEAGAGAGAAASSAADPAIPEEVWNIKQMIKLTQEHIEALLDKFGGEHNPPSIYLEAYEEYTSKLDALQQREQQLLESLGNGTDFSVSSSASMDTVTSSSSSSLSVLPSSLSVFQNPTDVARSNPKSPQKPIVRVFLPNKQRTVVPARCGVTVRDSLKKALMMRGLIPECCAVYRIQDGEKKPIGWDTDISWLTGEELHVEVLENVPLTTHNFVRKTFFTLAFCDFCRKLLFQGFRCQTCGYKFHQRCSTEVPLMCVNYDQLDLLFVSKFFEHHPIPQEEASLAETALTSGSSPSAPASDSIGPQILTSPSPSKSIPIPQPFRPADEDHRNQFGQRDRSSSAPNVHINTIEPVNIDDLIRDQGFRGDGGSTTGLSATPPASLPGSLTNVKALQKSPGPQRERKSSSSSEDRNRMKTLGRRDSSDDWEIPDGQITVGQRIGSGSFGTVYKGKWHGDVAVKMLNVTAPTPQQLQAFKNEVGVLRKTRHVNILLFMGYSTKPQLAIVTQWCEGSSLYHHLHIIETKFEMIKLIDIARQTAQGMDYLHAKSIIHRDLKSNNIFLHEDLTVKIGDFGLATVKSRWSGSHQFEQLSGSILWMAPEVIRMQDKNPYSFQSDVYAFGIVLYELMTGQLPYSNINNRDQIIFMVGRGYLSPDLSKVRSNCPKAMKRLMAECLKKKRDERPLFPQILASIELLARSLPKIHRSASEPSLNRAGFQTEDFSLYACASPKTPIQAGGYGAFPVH
In short: as §1

SMILES | dTm [1] [K] | dTm [2] [K] | dTm [3] [K] | dTm [4] [K] | dTm [5] [K] | dTm [6] [K] | dTm [7] [K] | dTm [8] [K] | dTm [9] [K] | dTm [10] [K]
COc1ccc(NC(=O)C2(C(=O)Nc3cccc(-c4c[nH]c5ncnc(N6CCOCC6)c45)c3)CC2)cc1 [Compound 16] | 0.59 | -0.37 | 0.11 | -0.99 | -0.51 | 2.19 | 0.82 | 1.33 | -0.48 | 4.18
O=C(Nc1cccc(-c2c[nH]c3ncnc(N4CCOCC4)c23)c1)C1(C(=O)Nc2ccc(F)c(F)c2)CC1 [Compound 17] | 1.94 | 0.38 | 1.54 | -0.77 | 3.60 | 5.09 | 2.36 | 2.59 | 0.99 | 7.80
O=C(Nc1cccc(-c2c[nH]c3ncnc(N4CCOCC4)c23)c1)C1(C(=O)Nc2ccc(F)c(Cl)c2)CC1 [Compound 18] | 2.57 | 0.70 | 2.15 | -0.23 | 5.41 | 5.76 | 2.96 | 3.38 | 2.92 | 10.73
O=C(Nc1cccc(-c2c[nH]c3ncnc(N4CCOCC4)c23)c1)C1(C(=O)Nc2ccc(F)c(Br)c2)CC1 [Compound 19] | 1.12 | 0.26 | 2.00 | -1.32 | 3.98 | 6.33 | 3.38 | 4.06 | 2.37 | 13.24
Cc1cc(NC(=O)C2(C(=O)Nc3cccc(-c4c[nH]c5ncnc(N6CCOCC6)c45)c3)CC2)ccc1F [Compound 20] | 3.99 | 0.33 | 1.78 | 0.0134 | 5.73 | 6.52 | 3.64 | 5.67 | 2.25 | 13.62
COc1cc(NC(=O)C2(C(=O)Nc3cccc(-c4c[nH]c5ncnc(N6CCOCC6)c45)c3)CC2)ccc1F [Compound 21] | 0.65 | 0.11 | 1.15 | -1.16 | 3.07 | 5.78 | 3.07 | 3.09 | 0.20 | 10.93
CC(C)(C)c1cccc(NC(=O)C2(C(=O)Nc3cccc(-c4c[nH]c5ncnc(N6CCOCC6)c45)c3)CC2)c1 [Compound 22] | 0.59 | -0.38 | 2.01 | -2.58 | 4.89 | 6.66 | 1.77 | 4.95 | -0.64 | 15.10
O=C(Nc1cccc(-c2c[nH]c3ncnc(N4CCOCC4)c23)c1)C1(C(=O)Nc2ccc(F)cc2F)CC1 [Compound 23] | 1.84 | 0.27 | 0.18 | -1.28 | 0.61 | 3.09 | 1.78 | 1.97 | -0.31 | 9.00
Cc1cc(F)ccc1NC(=O)C1(C(=O)Nc2cccc(-c3c[nH]c4ncnc(N5CCOCC5)c34)c2)CC1 [Compound 24] | 1.32 | 0.19 | 0.23 | -1.06 | 0.58 | 3.91 | 3.14 | 1.46 | -0.51 | 8.44
O=C(Nc1cccc(-c2c[nH]c3ncnc(N4CCOCC4)c23)c1)C1(C(=O)Nc2cc(Br)c(F)cc2F)CC1 [Compound 25] | -0.88 | -1.87 | 1.90 | -0.48 | 2.04 | 2.14 | 3.34 | 1.69 | -0.61 | 11.56
O=C(Nc1cccc(-c2c[nH]c3ncnc(N4CCOCC4)c23)c1)C1(C(=O)Nc2ccc(F)c(Br)c2F)CC1 [Compound 26] | -0.51 | 0.78 | 1.60 | -0.65 | 1.29 | 4.57 | 2.03 | 1.85 | -0.52 | 9.02
O=C(Nc1cc(F)cc(Br)c1)C1(C(=O)Nc2cccc(-c3c[nH]c4ncnc(N5CCOCC5)c34)c2)CC1 [Compound 27] | -2.17 | 0.00 | 1.75 | -3.19 | 1.64 | 4.18 | 2.66 | 0.61 | 1.21 | 6.66
CC(C)(C)c1cc(NC(=O)Nc2cccc(-c3c[nH]c4ncnc(N5CCOCC5)c34)c2)n(-c2ccc3ncccc3c2)n1 [Compound 28] | 11.98 | 0.32 | 1.84 | 2.32 | 7.97 | 1.81 | 1.76 | 8.21 | 4.48 | 32.83
Cc1ccc(-n2nc(C(C)(C)C)cc2NC(=O)Nc2cccc(-c3c[nH]c4ncnc(N5CCOCC5)c34)c2)cc1 [Compound 29] | -2.20 | 0.38 | -0.15 | 2.62 | 3.53 | 0.48 | 2.48 | 10.84 | 3.34 | 37.18
Cc1ccc(-n2nc(C(C)(C)C)cc2NC(=O)Nc2cccc(-c3c[nH]c4nc(Cl)nc(N5CCOCC5)c34)c2)cc1 [Compound 30] | 0.0373 | -0.59 | -1.25 | -3.64 | 1.31 | -2.01 | 0.45 | 3.90 | 0.28 | 18.85

— publication PMC12136037, “Type II kinase inhibitors that target Parkinson’s disease–associated LRRK2” (Science Advances, 2025)
